Results reported in PubChem BioAssay (NCI).
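GI50 is the concentration that inhibits growth by half. The concentration for full growth arrest is given as TGI.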

Assays:
Assay in all cases: inhibition of tumour cell growth, NCI panel, 384-well format
786-0 renal = tested on: 786-0 renal
A498 renal = tested on: A498 renal
A549 NSCLC = tested on: A549 NSCLC
ACHN renal = tested on: ACHN renal
BT-549 breast = tested on: BT-549 breast
CAKI-1 renal = tested on: CAKI-1 renal
CCRF-CEM leukemia = tested on: CCRF-CEM leukemia
COLO 205 colon = tested on: COLO 205 colon
DU-145 prostate = tested on: DU-145 prostate
EKVX NSCLC = tested on: EKVX NSCLC
HCC-2998 colon = tested on: HCC-2998 colon
HCT-15 colon = tested on: HCT-15 colon
HL-60(TB) leukemia = tested on: HL-60(TB) leukemia
HOP-62 NSCLC = tested on: HOP-62 NSCLC
HOP-92 NSCLC = tested on: HOP-92 NSCLC
HS 578T breast = tested on: HS 578T breast
HT29 colon = tested on: HT29 colon
IGROV1 ovarian = tested on: IGROV1 ovarian
KM12 colon = tested on: KM12 colon
M14 melanoma = tested on: M14 melanoma
MALME-3M melanoma = tested on: MALME-3M melanoma
MCF7 breast = tested on: MCF7 breast
MDA-MB-231 breast = tested on: MDA-MB-231 breast
MDA-MB-435 melanoma = tested on: MDA-MB-435 melanoma
MDA-MB-468 breast = tested on: MDA-MB-468 breast
MOLT-4 leukemia = tested on: MOLT-4 leukemia
NCI-H226 lung = tested on: NCI-H226 lung
NCI-H23 lung = tested on: NCI-H23 lung
NCI-H322M lung = tested on: NCI-H322M lung
NCI-H460 NSCLC = tested on: NCI-H460 NSCLC
NCI-H522 lung = tested on: NCI-H522 lung
NCI/ADR-RES ovarian = tested on: NCI/ADR-RES ovarian
OVCAR-3 ovarian = tested on: OVCAR-3 ovarian
OVCAR-4 ovarian = tested on: OVCAR-4 ovarian
OVCAR-5 ovarian = tested on: OVCAR-5 ovarian
OVCAR-8 ovarian = tested on: OVCAR-8 ovarian
PC-3 prostate = tested on: PC-3 prostate
RPMI-8226 leukemia = tested on: RPMI-8226 leukemia
RXF 393 renal = tested on: RXF 393 renal
SF-268 CNS = tested on: SF-268 CNS
SF-295 CNS = tested on: SF-295 CNS
SF-539 CNS = tested on: SF-539 CNS
SK-MEL-2 melanoma = tested on: SK-MEL-2 melanoma
SK-MEL-28 melanoma = tested on: SK-MEL-28 melanoma
SK-MEL-5 melanoma = tested on: SK-MEL-5 melanoma
SK-OV-3 ovarian = tested on: SK-OV-3 ovarian
SN12C renal = tested on: SN12C renal
SNB-19 CNS = tested on: SNB-19 CNS
SNB-75 CNS = tested on: SNB-75 CNS
SR leukemia = tested on: SR leukemia
SW-620 colon = tested on: SW-620 colon
T-47D breast = tested on: T-47D breast
TK-10 renal = tested on: TK-10 renal
U251 glioblastoma = tested on: U251 glioblastoma
UACC-257 melanoma = tested on: UACC-257 melanoma
UACC-62 melanoma = tested on: UACC-62 melanoma

**Q.** Which results are given for `CC(C)n1nc(-c2ccc3oc(N)nc3c2)c2c(N)ncnc21`?
**A.** GI50 (786-0 renal): 44.8 nM; TGI (786-0 renal): 1510 nM; GI50 (A498 renal): < 10 nM; TGI (A498 renal): 22 nM; GI50 (A549 NSCLC): 17.9 nM; TGI (A549 NSCLC): 259 nM; GI50 (ACHN renal): 36.2 nM; TGI (ACHN renal): 347 nM; GI50 (BT-549 breast): 12.1 nM; TGI (BT-549 breast): 56.9 nM; GI50 (CAKI-1 renal): 14.7 nM; TGI (CAKI-1 renal): 82.8 nM; GI50 (CCRF-CEM leukemia): 16.1 nM; TGI (CCRF-CEM leukemia): 258 nM; GI50 (COLO 205 colon): 12.6 nM; TGI (COLO 205 colon): 64 nM; GI50 (DU-145 prostate): 35.4 nM; TGI (DU-145 prostate): 2680 nM; GI50 (EKVX NSCLC): 18.2 nM; TGI (EKVX NSCLC): 122 nM; GI50 (HCC-2998 colon): 15.3 nM; TGI (HCC-2998 colon): 5310 nM; GI50 (HCT-15 colon): < 10 nM; TGI (HCT-15 colon): 11600 nM; GI50 (HL-60(TB) leukemia): 326 nM; TGI (HL-60(TB) leukemia): 3000 nM; GI50 (HOP-62 NSCLC): 12.4 nM; TGI (HOP-62 NSCLC): 119 nM; GI50 (HOP-92 NSCLC): 20.2 nM; TGI (HOP-92 NSCLC): 190 nM; GI50 (HS 578T breast): < 10 nM; TGI (HS 578T breast): 26.4 nM; GI50 (HT29 colon): 44.5 nM; TGI (HT29 colon): 10400 nM; GI50 (IGROV1 ovarian): < 10 nM; TGI (IGROV1 ovarian): 26.6 nM; GI50 (KM12 colon): 21.7 nM; TGI (KM12 colon): 1840 nM; GI50 (M14 melanoma): 14.7 nM; TGI (M14 melanoma): 165 nM; GI50 (MALME-3M melanoma): < 10 nM; TGI (MALME-3M melanoma): < 10 nM; GI50 (MCF7 breast): < 10 nM; TGI (MCF7 breast): 7120 nM; GI50 (MDA-MB-231 breast): 18.7 nM; TGI (MDA-MB-231 breast): 681 nM; GI50 (MDA-MB-435 melanoma): 26.4 nM; TGI (MDA-MB-435 melanoma): 152 nM; GI50 (MDA-MB-468 breast): < 10 nM; TGI (MDA-MB-468 breast): 15.2 nM; GI50 (MOLT-4 leukemia): 17.7 nM; TGI (MOLT-4 leukemia): 726 nM; GI50 (NCI-H226 lung): 10.2 nM; TGI (NCI-H226 lung): 62.7 nM; GI50 (NCI-H23 lung): 74.3 nM; TGI (NCI-H23 lung): 1630 nM; GI50 (NCI-H322M lung): 14.2 nM; TGI (NCI-H322M lung): 2270 nM; GI50 (NCI-H460 NSCLC): < 10 nM; TGI (NCI-H460 NSCLC): 1870 nM; GI50 (NCI-H522 lung): < 10 nM; TGI (NCI-H522 lung): 32.6 nM; GI50 (NCI/ADR-RES ovarian): 35.9 nM; TGI (NCI/ADR-RES ovarian): 402 nM; GI50 (OVCAR-3 ovarian): 22.2 nM; TGI (OVCAR-3 ovarian): 1160 nM; GI50 (OVCAR-4 ovarian): 18.5 nM; TGI (OVCAR-4 ovarian): 56.7 nM; GI50 (OVCAR-5 ovarian): 24.5 nM; TGI (OVCAR-5 ovarian): 603 nM; GI50 (OVCAR-8 ovarian): 40.1 nM; TGI (OVCAR-8 ovarian): 858 nM; GI50 (PC-3 prostate): < 10 nM; TGI (PC-3 prostate): 85.3 nM; GI50 (RPMI-8226 leukemia): < 10 nM; TGI (RPMI-8226 leukemia): < 10 nM; GI50 (RXF 393 renal): 12.5 nM; TGI (RXF 393 renal): 50.3 nM; GI50 (SF-268 CNS): 40.8 nM; TGI (SF-268 CNS): 579 nM; GI50 (SF-295 CNS): 27.8 nM; TGI (SF-295 CNS): 380 nM; GI50 (SF-539 CNS): 32.8 nM; TGI (SF-539 CNS): 626 nM; GI50 (SK-MEL-2 melanoma): 53.7 nM; TGI (SK-MEL-2 melanoma): 92.1 nM; GI50 (SK-MEL-28 melanoma): 18.7 nM; TGI (SK-MEL-28 melanoma): 83.9 nM; GI50 (SK-MEL-5 melanoma): 13.8 nM; TGI (SK-MEL-5 melanoma): 45.8 nM; GI50 (SK-OV-3 ovarian): < 10 nM; TGI (SK-OV-3 ovarian): 42 nM; GI50 (SN12C renal): 10.5 nM; TGI (SN12C renal): 1450 nM; GI50 (SNB-19 CNS): 69.6 nM; TGI (SNB-19 CNS): 10600 nM; GI50 (SNB-75 CNS): < 10 nM; TGI (SNB-75 CNS): 42 nM; GI50 (SR leukemia): 17.3 nM; TGI (SR leukemia): 63.5 nM; GI50 (SW-620 colon): 113 nM; TGI (SW-620 colon): 3140 nM; GI50 (T-47D breast): < 10 nM; TGI (T-47D breast): < 10 nM; GI50 (TK-10 renal): 11.6 nM; TGI (TK-10 renal): 109 nM; GI50 (U251 glioblastoma): 66.2 nM; TGI (U251 glioblastoma): 7220 nM; GI50 (UACC-257 melanoma): 51.4 nM; TGI (UACC-257 melanoma): 523 nM; GI50 (UACC-62 melanoma): 18.4 nM; TGI (UACC-62 melanoma): 78 nM
